These results are taken from publication PMC4195764, “Molecular mechanism of ligand recognition by membrane transport protein, Mhp1” (The EMBO Journal, 2014).

Test [1] concerns the target T1, Mhp1 (Microbacterium maritypicum, UniProt D6R8X8).
T1 sequence (D6R8X8 1-489): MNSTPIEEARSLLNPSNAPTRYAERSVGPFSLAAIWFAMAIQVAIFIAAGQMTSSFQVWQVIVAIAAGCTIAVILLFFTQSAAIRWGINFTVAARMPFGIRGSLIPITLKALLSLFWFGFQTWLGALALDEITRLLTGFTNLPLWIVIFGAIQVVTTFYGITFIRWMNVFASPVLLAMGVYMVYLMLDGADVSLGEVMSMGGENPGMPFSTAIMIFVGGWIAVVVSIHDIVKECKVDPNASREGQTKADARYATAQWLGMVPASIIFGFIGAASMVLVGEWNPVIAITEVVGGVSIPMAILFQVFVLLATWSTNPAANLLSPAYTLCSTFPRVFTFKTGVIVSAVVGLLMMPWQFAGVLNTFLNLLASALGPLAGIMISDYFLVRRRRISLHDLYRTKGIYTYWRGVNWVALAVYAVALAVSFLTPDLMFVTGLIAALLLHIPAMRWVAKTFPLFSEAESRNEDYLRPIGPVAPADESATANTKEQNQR
The experiment in a line: inhibition of […]-L-IMH uptake into E. coli cells expressing Mhp1. In kind it is cell-based. Details: gene hyuP; full-length membrane protein expressed in E. coli BL21(DE3) from pSHP11. The settings on record: read-out: Apparent IC5_0.

In test [2] the target is T1, Mhp1. The experiment in a line: stopped-flow tryptophan spectrophotofluorimetry. The settings on record: read-out: Apparent Kd. Details: gene hyuP; full-length membrane protein expressed in E. coli BL21(DE3) from pSHP11; GFP-fusion purified for crystallography (details in supplement). It counts as binding. The text has this: stopped-flow tryptophan spectrophotofluorimetry on Mhp1

The target in test [3] is T2, Mhp1 (Microbacterium maritypicum, UniProt D6R8X8, L363A).
T2 construct: gene hyuP; full-length membrane protein expressed in E. coli BL21(DE3) from pSHP11; GFP-fusion purified for crystallography (details in supplement)
The experiment in a line: uptake of […]-L-NMH into E. coli cells expressing mutant. The settings on record: 50 μM labelled compound, 150 mM NaCl, pH 6.6, 15 s; not transported by wild type. In kind it is cell-based.

T2 sequence (D6R8X8 whole entry L363A, the tested form may be a part): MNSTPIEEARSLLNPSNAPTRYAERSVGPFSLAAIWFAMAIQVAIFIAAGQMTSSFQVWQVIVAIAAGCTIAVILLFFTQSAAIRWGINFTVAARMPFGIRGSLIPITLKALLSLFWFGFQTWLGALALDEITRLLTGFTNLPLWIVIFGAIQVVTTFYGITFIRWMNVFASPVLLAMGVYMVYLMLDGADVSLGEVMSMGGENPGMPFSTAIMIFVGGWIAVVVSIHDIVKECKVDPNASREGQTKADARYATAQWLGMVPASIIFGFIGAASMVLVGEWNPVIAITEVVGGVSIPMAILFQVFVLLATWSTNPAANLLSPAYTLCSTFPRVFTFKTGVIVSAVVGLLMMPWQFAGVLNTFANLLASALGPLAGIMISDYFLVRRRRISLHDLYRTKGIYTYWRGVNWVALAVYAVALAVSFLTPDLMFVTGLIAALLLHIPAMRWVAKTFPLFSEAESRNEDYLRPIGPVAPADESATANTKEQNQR

A word on the IC50: it is the point on the concentration scale where inhibition reaches its midpoint. Consider `O=C1NC(=O)C(=Cc2cccc(Br)c2)N1` (stereo in doubt) [BVH, (5E)-5-[(3-bromophenyl)methylidene] imidazolidine-2,4-dione], for which the IC50 at Mhp1 [1] turned out to be 38.8 ± 1.1 µM. For the same compound, the Kd on Mhp1 [2] was 2 ± 0.2 µM.

As for `O=C1NC(=O)[C@@H](Cc2ccccc2)N1` [D-BH], the Kd on Mhp1 [2] was 130 ± 10 µM.

Regarding `O=C1NC(=O)[C@@H](Cc2c[nH]c3ccccc23)N1` [D-IMH], the Kd at Mhp1 [2] worked out at 20.6 ± 3.8 µM.

For `O=C1NC(=O)[C@@H](Cc2ccc3ccccc3c2)N1` [D-NMH], the IC50 on Mhp1 [1] is 17.1 ± 1.1 µM. For the same compound, at Mhp1 [2], the Kd turned out to be 1.8 ± 0.3 µM.

As to `O=C1NC(=O)[C@H](Cc2ccccc2)N1` [L-BH, (5S)-5-benzylimidazolidine-2,4-dione], the IC50 at Mhp1 [1] worked out at 945 ± 1.1 µM. Further, at Mhp1 [2], the Kd worked out at 36 ± 1.4 µM.

Consider `O=C1NC(=O)[C@H](Cc2c[nH]c3ccccc23)N1` [L-IMH, (5S)-5-(1H-indol-3-ylmethyl)imidazolidine-2,4-dione], for which the 50% inhibitory concentration (IC50) at Mhp1 [1] was 119.2 ± 1.1 µM. In addition, the Kd at Mhp1 [2] turned out to be 19 ± 2 µM.

Take `O=C1NC(=O)[C@H](Cc2ccc3ccccc3c2)N1` [L-NMH, (5S)-5-(naphthalen-2-ylmethyl)imidazolidine-2,4-dione]: the “uptake of 14C-L-NMH into E. coli cells expressing mutant” value at Mhp1 [3] was “when Leu363 was mutated to an alanine, uptake was restored”. Besides, on Mhp1 [1], the IC50 is 14.9 ± 1.1 µM. In addition, the Kd on Mhp1 [2] came out at 3.6 ± 0.8 µM.
